# According to patent publication US11492382B2, “Chimeric peptides with an antimicrobial domain and an inorganic binding domain” (priority 2017, dated 2022):
# Entries after “also recorded” stand apart in the source; their conditions may differ. Where two headings read alike, the source gives them in different places. Ends that are not written are not given here. Peptide text beside a SMILES is read from it.
# What was measured:
# [1] = tested on: Escherichia coli, ATCC 25922
# Description: The antibacterial activity against two strains of bacteria of a previously published cHABP1 peptide,^65,66 an antimicrobial peptide designed through artificial intelligence methods (HHC-36),^67 and a chimeric peptide cHABP1-GGG-HHC36 to functionalize calcium phosphate surfaces with antibacterial activity.
# S. mutans (ATCC 25175) [2] = conditions: in solution; previously published values; cited from earlier work
# [3] = tested on: S. epidermidis (ATCC 29886); conditions: in solution; previously published values; cited from earlier work
# [4] = tested on: S. epidermidis (ATCC 29886); test: AlamarBlue assay, minimum bactericidal concentration; assay type: cell-based
# Procedure: (§1) The antimicrobial activity of TiBP-Spacer5-AMP was evaluated against two bacterial strains, S. mutans (American Type Culture Collection (ATCC) 25175, Manassas, Va.) and S. epidermidis (ATCC 29886). S. mutans cultures were prepared using Brain Heart Infusion Broth (BHI, BD Difco, Franklin Lakes, N.J.) and S. epidermidis using Nutrient Broth (NB, BD Difco) according to ATCC protocols. Bacterial pellets obtained from ATCC were rehydrated in appropriate media of which several drops were used to streak either BHI or NB agar plates. Bacteria streaked agar plates were subsequently incubated for 24 h. Agar plates and cultures were incubated at 37° C. in the presence of 5% CO2-supplemented atmosphere for S. mutans and in aerobic atmosphere and 200 rpm shaking for S. epidermidis. Overnight cultures were made by aseptically transferring a single-colony forming unit (CFU) into 10 mL of appropriate broth media followed by incubation in appropriate conditions for 16 h. Bacteria from overnight cultures were used to inoculate fresh media and grown to mid-log phase.
# (§2) The MIC of TiBP-Spacer5-AMP against S. mutans and S. epidermidis in solution was evaluated in 96 well plates (Corning Costar 3370, Corning, N.Y.) spectrophotometrically over a period of 24 h by obtaining a measurement for the optical density at 600 nm (OD600) every two hours. […]
# S. mutans (ATCC 25175) [5] = test: as above; assay type: cell-based
# Procedure: as §1, §2
# S. epidermidis = test: Antimicrobial activity on bio-coated titanium substrates, fluorescence imaging and ImageJ; assay type: cell-based
# Description: Two surfaces, 99% pure titanium foil (Alfa Aesar 43677, Ward Hill, Mass.) and titanium implant discs cut from standard rods used in posterior lumbar surgery (University of Kansas Medical Center Department of Neurosurgery, Kansas City, Kans.) were used for evaluation of TiBP-Spacer5-AMP biocoating antimicrobial activity. Titanium foils were cut into squares measuring 0.5 mm thick×1 cm×1 cm and 6 mm diameter implant rods were cut by the University of Kansas Medical Center Department of Neurosurgery with a standard orthopedic surgical rod cutter into 3 mm long disc segments. […]
# Antimicrobial activity of TiBP-Spacer5-AMP biocoated titanium surfaces against each bacterial strain was evaluated by culturing bacteria in 24 well plates containing bio-coated surfaces or bare, untreated control surfaces. […] Stained bacteria were imaged with a fluorescence microscope (Olympus Spin Disk Epifluorescent microscope, Richmond Hill, Ontario, Canada) at an excitation/emission wave number provided by the manufacturer. Five representative fluorescence images were taken for each sample (n=3) and the bacteria were quantified using ImageJ Software and then subjected to statistical analysis.
# [6] = tested on: S. epidermidis (ATCC 29886); test: MIC in solution, OD600 over 24 h; assay type: cell-based; set-up: key to Growth: Entries with a “+” indicate bacterial growth did occur at that concentration of TiBP-Spacer5-AMP; entries with a “−” indicate inhibition of bacterial growth; conditions: for Growth: S. epidermidis
# Procedure: as §1
# (§3) The MIC of TiBP-Spacer5-AMP against S. mutans and S. epidermidis in solution was evaluated in 96 well plates (Corning Costar 3370, Corning, N.Y.) spectrophotometrically over a period of 24 h by obtaining a measurement for the optical density at 600 nm (OD600) every two hours. Optical density at 600 nm was measured using a Cytation3 microplate reader (Bio Tek Instruments, Winooski, Vt.). Bacteria grown to mid-log phase at a density of 10^7 CFU/mL were cultured at appropriate growth conditions in appropriate broth media only as a control or in broth media containing a range from 5-70 μM of TiBP-Spacer5-AMP for S. mutans and 1-10 μM for S. epidermidis. The OD600 measurements obtained, relating optical density to bacteria CFUs/mL, were plotted versus time to generate standard growth curves. The minimum concentration of TiBP-Spacer5-AMP at which no increase in optical density measurement, corresponding to no bacterial growth occurring was designated as the MIC. AlamarBlue assay (Invitrogen, Carlsbad, Calif.) was used for determination of a minimum bactericidal concentration of TiBP-Spacer5-AMP. Bacteria in broth media only and with the TiBPSpacer5-AMP concentrations described in the MIC experiments were prepared in 96 well plates. AlamarBlue reagent was added to experimental wells and incubated for two hours at 37° C. Experimental wells were observed and evaluated for color change. Wells corresponding to concentrations of TiBP-Spacer5-AMP where no color change occurred were determined to have bactericidal concentrations of the chimeric peptide.
# S. mutans (ATCC 25175) [7] = test: MIC in solution, OD600 over 24 h; assay type: cell-based; set-up: key to Growth: Entries with a “+” indicate bacterial growth did occur at that concentration of TiBP-Spacer5-AMP; entries with a “−” indicate inhibition of bacterial growth; conditions: for Growth: S. mutans
# Procedure: as §1, §3
# NIH/3T3 fibroblast = test: Host cell attachment and spreading on coated titanium surfaces; assay type: cell-based; conditions: 60 μM bio-coating
# Procedure: Host cell response was evaluated with a fibroblast cell line (NIH/3T3 ATCC CRL-1658). The fibroblast cells were cultured following the ATCC protocol. Briefly, cells were grown in DMEM media (Gibco 11995073, Carlsbad, Calif.) supplemented with 10% fetal bovine serum (Gibco 10437036) and 1% penicillin-streptomycin (Gibco 15070063) and incubated at 37° C. in a 5% CO2 atmosphere. Fibroblasts were passaged using 0.25% TrypsinEDTA (Gibco 25200072) and cells were counted to ensure correct seeding concentrations. Fibroblast cell response to 60 μM TiBP-Spacer5AMP bio-coating, 200 μg/mL collagen (Sigma C7661, St. Louis, Mo.) coating (positive control) and bare, untreated (negative control) titanium foil and implant surfaces was studied. Fibroblast cells at a concentration of 8×10^5 cells/mL were added to sterile 24 well plates containing TiBP-Spacer5-AMP coated, collagen coated, or bare, untreated foils or implants and incubated for 24 h at 37° C. in a 5% CO2 atmosphere. Fibroblast attachment and spreading were evaluated by fixing fibroblasts on titanium surfaces with 2% glutaraldehyde solution, followed by dehydration in 10%, 30%, 60%, 90% and 100% ethanol. Fixed fibroblasts on titanium surfaces were washed twice with PBS, permeabilized with TritonX (Sigma T8787), sealed with BSA (Fisher BioReagents BP671-10, Carlsbad, Calif.), and stained with Alexa Fluor488-Phalloidin dye (Invitrogen). Unbound dye was removed by washing with PBS and substrates were imaged with a fluorescent microscope at 4, 10 and 20 times magnification. Five representative images of each surface (n=3) were obtained and analyzed with ImageJ Software and then subjected to statistical analysis. Cell attachment was determined as number of cells per square millimeter and the percentage of the image surface covered by attached cells. Another measure of viability, metabolic activity was determined using a MTT (3-(4,5-dimethylthiazol-2-yl)-25-diphenyltetrazolium bromide) assay (Sigma M5655). […] Absorbance was measured at 570 nm.
compound,measurement,setting,value
"KRWWKWWRR [HHC-36, KRWWKWWRR (SEQ ID NO: 37)]",S. mutans IC50,S. mutans,3 µg/mL
same,MIC value,S. mutans; S. mutans,10.8 µM
same,E. coli IC50,[1],12 µg/mL
same,MIC estimate,"[1]; Escherichia coli, ATCC 25922",21.5 µM
"LKLLKKLLKLLKKL (SEQ ID NO: 8) [AMP, antimicrobial peptide]",Minimum Inhibitory Concentration (MIC) S. mutans,S. mutans (ATCC 25175) [2],38 µM
same,Minimum Inhibitory Concentration (MIC) S. epidermidis,[3],4 µM
"RPRENRGRERGLGSGGGLKLLKKLLKLLKKL [TiBP-Spacer5-AMP, RPRENRGRERGL-GSGGG-LKLLKKLLKLLKKL (SEQ ID NO: 10)]",bactericidal concentration,[4],10 µM
same,bactericidal concentration,S. mutans (ATCC 25175) [5],60 µM
same,"Fold Improvement Compared to Uncoated Ti Surfaces, Implants",S. epidermidis; implant discs coated at 10 μM,48 fold
same,"Fold Improvement Compared to Uncoated Ti Surfaces, Foils",S. epidermidis; titanium foil coated at 10 μM,33 fold
same,Growth,[6]; 1 μM,+
same,Growth,[6]; 2 μM,+
same,Growth,[6]; 3 μM,+
same,Growth,[6]; 4 μM,+
same,Growth,[6]; 5 μM,+
same,Growth,[6]; 6 μM,+
same,Growth,[6]; 7 μM,+
same,Growth,[6]; 8 μM,−
same,Minimum Inhibitory Concentration (MIC) S. epidermidis,[6]; in solution,8 µM
same,Growth,S. mutans (ATCC 25175) [7]; 5 μM,+
same,Growth,S. mutans (ATCC 25175) [7]; 10 μM,+
same,Growth,S. mutans (ATCC 25175) [7]; 20 μM,+
same,Growth,S. mutans (ATCC 25175) [7]; 30 μM,+
same,Growth,S. mutans (ATCC 25175) [7]; 40 μM,+
same,Growth,S. mutans (ATCC 25175) [7]; 50 μM,−
same,Growth,S. mutans (ATCC 25175) [7]; 60 μM,−
same,Growth,S. mutans (ATCC 25175) [7]; 70 μM,−
same,improvement (decrease) of MIC against S. mutans,S. mutans (ATCC 25175) [7]; compared to TiBP-Spacer3-AMP,three-fold
same,Minimum Inhibitory Concentration (MIC) S. mutans,S. mutans (ATCC 25175) [7]; in solution,50 µM
same,fibroblast surface coverage (spreading),"NIH/3T3 fibroblast; titanium foils, compared to untreated control",greater coverage
same,adhesion and spreading,"NIH/3T3 fibroblast; titanium implants, compared to collagen positive control",statistically comparable to the positive collagen controls
same,cell attachment and spreading,"NIH/3T3 fibroblast; titanium implants, compared to untreated control",greater cell attachment and spreading compared to untreated controls; also recorded: statistically greater cell attachment and spreading properties
"CSCC[C@H](NC(=O)[C@@H](N)CS)C(=O)N[C@@H](CC(C)C)C(=O)N1CCC[C@H]1C(=O)N[C@@H](Cc1c[nH]cn1)C(=O)N[C@@H](Cc1c[nH]cn1)C(=O)NCC(=O)N[C@@H](C)C(=O)N[C@@H](CS)C(=O)O [cHABP1, CMLPHHGAC (SEQ ID NO: 36)] (H-CMLPHHGAC-OH; N-terminus and C-terminus assumed)",antibacterial activity by absorbance at 600 nm (FIG. 11),S. mutans; S. mutans,some antibacterial activity in the higher tested concentrations
same,antibacterial activity by absorbance at 600 nm (FIG. 11),[1]; E. coli,some antibacterial activity in the higher tested concentrations
"RPRENRGRERGL-GGG-LKLLKKLLKLLKKL (SEQ ID NO: 9) (RPRENRGRERGLGGGLKLLKKLLKLLKKL) [TiBP-Spacer3-AMP, comparative chimeric peptide with shorter spacer]",Minimum Inhibitory Concentration (MIC) S. mutans,S. mutans (ATCC 25175) [2],153 µM
same,Minimum Inhibitory Concentration (MIC) S. epidermidis,[3],5 µM
